Assay results published in EP2324824A2, “Medical application of lipid derivatives of dopamine” (Instytut Medycyny Doswiadczalnej I Klinicznej, priority 2009, dated 2011).

What was measured:
[1] = tested on: anesthetized, paralyzed and artificially ventilated Wistar rats; assay: Respiratory response to hypoxia in the anesthetized rat (integrated phrenic nerve activity); type: in vivo; conditions: for peak respiratory response in relation to the starting-point values: substance alone: N-oleoyl-dopamine 20 mg/kg, haloperidol 3 mg/kg, domperidone 0.3 mg/kg; for effect on respiration in the second inhibitory phase of the response to hypoxia: substance alone, 14% and 11 % hypoxia
Method: The study was performed in anesthetized, paralyzed and artificially ventilated Wistar rats. During the experiments, the integrated activity of the phrenic nerve was recorded. This activity reflects the frequency and tidal volume; their product represents the index of minute lung ventilation. The experimental protocol consisted of control recordings for two levels of the hypoxic stimulus: 14% and 11 % O2 in N2. Afterwards, N-oleoyl-dopamine in a dose of 20 mg/kg was given and the recordings were repeated. Additionally, experiments with two dopamine receptor antagonists were performed: first, with the penetrating through the blood-brain barrier D2 dopamine receptor antagonist haloperidol and second, with the non-penetrating through the blood-brain-barrier domperidone. In these studies, after the control recordings, haloperidol (in a dose of 3 mg/kg) or domperidone (in a dose of 0.3 mg/kg) were administered and the recordings repeated. Then, N-oleoyl-dopamine was given and the recordings were repeated.

awake Wistar rats = assay: Respiration in normoxia and hypoxia in the awake rat (plethysmographic chamber); type: in vivo; conditions: for Minute lung ventilation (peak respiratory response): after haloperidol 0.9 mg/kg i.p. and N-oleoyl-dopamine 40 mg/kg i.p.
Method: The study was performed in awake Wistar rats in a computerized plethysmographic chamber for small rodents. Respiratory frequency, tidal volume and pulmonary ventilation were measured. The experimental protocol included recordings in normoxia (breathing with atmospheric air), two levels of hypoxic stimulus (8% and 12% O2 in N2), intraperitoneal (i.p.) administration of N-oleoyl-dopamine (in a dose of 40 mg/kg) and repeated recordings for both normoxic and hypoxic states. Additionally, further experiments with the dopamine receptor antagonist haloperidol (in a dose of 0.9 mg/kg, i.p.) were performed. In those experiments, haloperidol was administered prior to N-oleoyl-dopamine and the recordings according the above-mentioned protocol were repeated. […]

[2] = tested on: rat model of Parkinson's disease; conditions: cited from earlier work
brain = conditions: after injection into the carotid artery; cited from earlier work
[3] = target: TRPV1 vanilloid receptors (Homo sapiens, UniProt Q8NER1); conditions: mentioned in the literature; cited from earlier work
[4] = tested on: rat brain membrane system; type: in vivo, Wistar rats; conditions: 20 mg/kg intraperitoneal
Method: N-oleoyl-dopamine was administered to Wistar rats at a dose of 20 mg/kg. After 1, 2, 3 or 24 hours the rat was sacrificed and the brain was resected. From the tissue, the whole lipid fraction, containing all lipids of the brain and the membrane fraction of the rat brain were obtained. Total lipids were obtained by homogenization of the brain in a mixture of chloroform and methanol 2:1 followed by an extraction of the water-soluble fractions and evaporation of the solvent. The membrane phase was obtained according to Xu et al. (Xu, 1998) and extracted with chloroform to obtain membrane lipids. All obtained samples were analyzed by the thin layer chromatography TLC on silica gel plates 60 using a mixture of chloroform and methanol 95:5 as the mobile phase and N-oleoyl-dopamine as the standard. The Retention Factor (Rf) for the N-oleoyl-dopamine standard was equal to 0.24-0.26. At the same level (the same Rf = […]) there were bands corresponding to N-oleoyl-dopamine in the biological samples, that is after systemic N-oleoyl-dopamine injection, but not in the control samples obtained with no N-oleoyl-dopamine injection.

rat = conditions: cited from earlier work
[5] = in vitro conditions; cited from earlier work
[6] = tested on: animal model of Parkinson's disease; assay: Muscle rigidity in reserpine + α-methyl-tyrosine model of Parkinson's disease (EMG); type: in vivo, rats; conditions: 10 mg/kg
Method: Symptoms of the Parkinson's disease, particularly muscle rigidity during flexion and extension movements in the ankle joint, were induced with reserpine (2.5 mg/kg, i.p.) and α-methyl-tyrosine (α-MT, 250 mg/kg, i.p.) administered at a 16-h interval. Afterwards, 3'-O-methyl-N-oleoyl-dopamine (O-Me-OLDA) was administered at a dose of 10 mg/kg and the muscular tone was measured using electromyographic (EMG) techniques. The control groups consisted of a) only vehiculum-treated animals in which no symptoms of Parkinson's disease were induced (control), b) animals who received only 3'-O-methyl-N-oleoyl-dopamine (O-Me-OLDA) and c) animals in which symptoms of Parkinson's disease were induced (reserpine + α-MT), but no other treatment was introduced.

[7] = N-oleoyl-dopamine 20 mg/kg given after domperidone 0.3 mg/kg
[8] = N-oleoyl-dopamine 20 mg/kg given after haloperidol 3 mg/kg
[9] = 8% hypoxia, 40 mg/kg i.p., awake rat
[10] = 8% hypoxia, after 40 mg/kg i.p., awake rat
[11] = normoxia, 40 mg/kg i.p., awake rat

Chain of TRPV1 vanilloid receptors (Q8NER1 whole entry): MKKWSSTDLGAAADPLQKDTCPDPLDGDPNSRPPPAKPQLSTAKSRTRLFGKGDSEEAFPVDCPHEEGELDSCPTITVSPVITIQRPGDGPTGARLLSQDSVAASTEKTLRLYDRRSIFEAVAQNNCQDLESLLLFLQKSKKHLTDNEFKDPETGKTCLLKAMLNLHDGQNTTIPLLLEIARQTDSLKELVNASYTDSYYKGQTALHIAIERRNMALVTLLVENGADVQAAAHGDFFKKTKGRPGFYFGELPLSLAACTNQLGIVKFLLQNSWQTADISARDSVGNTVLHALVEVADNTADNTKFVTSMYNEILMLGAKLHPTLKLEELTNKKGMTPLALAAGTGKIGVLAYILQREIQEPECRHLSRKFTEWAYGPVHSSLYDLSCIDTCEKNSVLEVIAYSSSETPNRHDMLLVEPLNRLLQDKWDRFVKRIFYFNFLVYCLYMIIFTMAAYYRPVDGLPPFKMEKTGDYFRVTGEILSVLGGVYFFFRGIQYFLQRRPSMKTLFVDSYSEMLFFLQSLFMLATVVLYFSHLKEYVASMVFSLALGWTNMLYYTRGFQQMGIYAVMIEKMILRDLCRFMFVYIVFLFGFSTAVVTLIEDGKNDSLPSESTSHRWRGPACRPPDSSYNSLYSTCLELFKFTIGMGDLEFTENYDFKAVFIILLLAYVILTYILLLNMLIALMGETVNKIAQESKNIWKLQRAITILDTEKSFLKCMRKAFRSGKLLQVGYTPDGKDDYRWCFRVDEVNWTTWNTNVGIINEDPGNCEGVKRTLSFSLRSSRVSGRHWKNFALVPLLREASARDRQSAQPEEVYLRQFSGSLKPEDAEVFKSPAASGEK

Which results are given for `CCCCCCCC/C=C\CCCCCCCC(=O)NCCc1ccc(O)c(O)c1` [N-oleoyl-dopamine]?
peak respiratory response in relation to the starting-point values ([1]; 11 % hypoxia (O2 in N2)): 38 ±9%; peak respiratory response in relation to the starting-point values ([1]; 14% hypoxia (O2 in N2)): 18 ±10%; effect on respiration in the inhibitory phase [1, 7]: still diminished the respiration; effect on response to hypoxia in the stimulatory phase [1, 7]: did not change the response to hypoxia; effect on respiratory response in the first stimulatory phase [1, 8]: did not restore the respiratory response; effect on respiratory response in the second inhibitory phase [1, 8]: still diminished it; effect on respiration in the second inhibitory phase of the response to hypoxia [1]: reduced the respiratory response to hypoxia; reduction of peak respiratory response (awake Wistar rats; [9]): 41%; peak respiratory response (awake Wistar rats; [10]): 1338.3 ±49.5 ml/min/kg body weight; Minute lung ventilation (peak respiratory response) (awake Wistar rats; 8% hypoxia): 1947.3 ±66.5 ml/min/kg body weight; reduction of peak respiratory response (awake Wistar rats; 12% hypoxia, 40 mg/kg i.p., awake rat): 36%; peak respiratory response (awake Wistar rats; 12% hypoxia, after 40 mg/kg i.p., awake rat): 856.6 ±73.7 ml/min/kg body weight; Minute lung ventilation (peak respiratory response) (awake Wistar rats; 12% hypoxia): 1484.0 ±92.3 ml/min/kg body weight; decrease in respiratory frequency (awake Wistar rats; [11]): 23%; decrease of resting ventilation during breathing with atmospheric oxygen (awake Wistar rats; [11]): 33%; muscle rigidity [2]: diminishes muscle rigidity; penetration into the brain (brain): ability to penetrate into the brain; action towards TRPV1 vanilloid receptors [3]: agonistic action; penetration into the membrane system of the brain ([4]; brain taken after 1, 2, 3 or 24 hours): penetrates into the membrane system of the rat brain; time staying unchanged bound to the brain membrane system ([4]; rat brain): at least 24 hours; locomotor activity (rat): increases the locomotor activity; stability [5]: highly stable

For `O=C(CCCN1CCC(O)(c2ccc(Cl)cc2)CC1)c1ccc(F)cc1` [haloperidol, reference compound], which “peak respiratory response in relation to the starting-point values” (“peak respiratory response in relation” for short) ([1]; 11 % hypoxia (O2 in N2)) is on record?
Its value is 22 ±5%.

And the “peak respiratory response in relation” value ([1]; 14% hypoxia (O2 in N2))?
The value was 18 ±3%.

And the “effect on respiration in the second inhibitory phase of the response to hypoxia” value [1]?
Its value is “diminished the respiration”.

What does the source list for `CCCCCCCC/C=C\CCCCCCCC(=O)NCCc1ccc(O)c(OC)c1` [3'-O-methyl-N-oleoyl-dopamine]?
reduction of peak respiratory response (awake Wistar rats; [9]): 19%; peak respiratory response (awake Wistar rats; [10]): 1939 ±255 ml/min/kg body weight; decrease of resting ventilation during breathing with atmospheric oxygen (awake Wistar rats; [11]): 23%; resting ventilation during breathing with atmospheric oxygen (awake Wistar rats; normoxia, after 40 mg/kg i.p., awake rat): 779.7 ±148.7 ml/min/kg body weight; action towards TRPV1 vanilloid receptors [3]: agonistic action; muscle rigidity ([6]; rats treated with reserpine 2.5 mg/kg i.p. + α-MT 250 mg/kg i.p.): abolished muscle rigidity; muscle tone in comparison to control recordings ([6]; substance alone, no Parkinson symptoms induced): did not change the muscle tone; muscle tone (force needed for flexion and extension of the ankle joint) ([6]; three-fold elevated level of muscle tone by reserpine, Fig.1): decreases nearly down to the control level

With `O=c1[nH]c2ccccc2n1CCCN1CCC(n2c(=O)[nH]c3cc(Cl)ccc32)CC1` [domperidone, reference compound] as the compound, how does the “peak respiratory response in relation” value ([1]; 11 % hypoxia (O2 in N2)) read?
The value was 26 ±5%.

And the “peak respiratory response in relation” value ([1]; 14% hypoxia (O2 in N2))?
The value was 21 ±5%.
